We go through twelve compounds from PubChem BioAssay (NCI).

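Each compound was tested at five concentrations against cells in 96-well plates for 48 hours. GI50 marks 50% less growth. TGI: concentration producing complete growth inhibition.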

Common to all, as to assay: growth of human tumour cells (NCI), 48 h
In assay [1] the test system is OVCAR-3 ovarian.
Assay [2] concerns NCI-H460 lung.
Assay [3] has as its system T-47D breast.
Assay [4] relates to K-562 leukemia.
The subject of assay [5] is BT-549 breast.
The test system of assay [6] is OVCAR-8 ovarian.
The subject of assay [7] is UACC-257 melanoma.
Assay [8] has as its system MCF7 breast.
The test system of assay [9] is SK-OV-3 ovarian.
The test system of assay [10] is CAKI-1 renal.

For `CC(C)(C)OC(=O)NCCCCCCCCCn1c2c(c3ccccc3c1=O)C(=O)c1ccccc1-2`, the GI50 in assay [1] was 29.2 µM; in [2] it was more than 100000 nM; in [3], 78.9 µM; in assay [4] it was more than 100 µM; in assay [5], 35.1 µM; in assay [6], 56.1 µM. Also, the GI50 in assay [7] is more than 100 µM; in assay [8], 90000 nM; in [9], 23.6 µM. For the same compound, the TGI in assay [1], in assay [2], in assay [3], in assay [4], in assay [5] and in assay [6] was more than 100 µM each time. The results for the TGI in assay [7], in assay [8] and in assay [9] were more than 100 µM, more than 100 µM and 78.3 µM, respectively.

For the compound `CC1=CC(=O)NP(=O)(Oc2ccc(Cl)cc2)N1` (stereo not drawn), the TGI in assay [1], in assay [2], in assay [4], in assay [6], in assay [10] and in assay [7] was more than 100 µM throughout. The TGI in assay [9] is more than 100 µM.

Turning to `Cc1nc(-n2nc(-c3ccccc3)cc2-c2ccccc2)sc1C(=O)CC(=O)C(=O)Nc1ccc(Cl)c(Cl)c1`, the TGI in assay [1], in assay [2], in assay [4], in [6], in assay [10] and in assay [7] was more than 100 µM in each case. Further, the TGI in assay [9] was more than 100 µM.

As for `COC(=O)c1csc(-c2csc(CCNC(=O)OC(C)(C)C)n2)n1`, the TGI in assay [1], in [2], in assay [4], in assay [5], in assay [6] and in assay [7] was more than 100 µM each time. The TGI in [8] and in assay [9] was more than 100 µM each time.

As for `CN(C)Cc1ccc(NC(=O)c2cncc(C#Cc3cnc(N)c4ncccc34)c2)cc1C(F)(F)F`, the GI50 in assay [1] is 1.98 µM; in assay [2], 1670 nM; in assay [3] it was 15.8 µM; in [5] it was 2.21 µM; in assay [6] it was 1.82 µM; in assay [10], 3.48 µM. The GI50 was 0.673 µM in assay [7] and 1630 nM in assay [8]. The TGI in assay [1] was 3.8 µM; in assay [2], 3.12 µM; in [3] it was 65.3 µM; in assay [4], 1.02 µM; in assay [5] it was 4.36 µM; in [6], 3.85 µM. Further, the TGI amounted to 11.5 µM in [10], 2.53 µM in [7] and 3.33 µM in assay [8].

Turning to `COCN1COCN(C)C1=O`, the TGI in [1], in assay [2], in assay [4], in assay [6], in assay [10] and in assay [7] was more than 100 µM throughout. This compound returned a TGI in [9] of more than 100 µM.

For `Nc1[nH]nc(Nc2ccccc2)c1-c1nc2ccccc2s1`, the GI50 was 1.7 µM in assay [1]; 1940 nM in [2]; 2.2 µM in [3]; 1.88 µM in assay [4]; 1.52 µM in assay [5]; 2.36 µM in assay [6]. Moreover, the GI50 was 2260 nM in assay [8] and 4.63 µM in assay [9]. Further, the TGI turned out to be 3.76 µM in [1]; 4.17 µM in [2]; 11.2 µM in [3]; 7.81 µM in assay [4]; 3.34 µM in [5]; 5.98 µM in [6]. Also, the TGI is 8.68 µM in assay [8] and 15.7 µM in assay [9].

On to `CC(=O)OC1(Sc2ccccc2)CC2[C@H]3COC(C)(C)O[C@H]3CC[C@@]2(C)CC1=O` (stereo partly drawn), for which the TGI in [1], in assay [2], in assay [4], in [6], in assay [10] and in assay [7] was more than 100 µM each time. This compound also yielded a TGI in [9] of 95.7 µM.

For `OCc1c(-c2cccs2)oc(-c2cccs2)c1CO`, the GI50 was 48.1 µM in [1]; 28400 nM in [2]; 17.3 µM in assay [3]; 41 µM in assay [4]; 56 µM in [5]; 50.7 µM in assay [6]. Besides, the GI50 is 38.2 µM in assay [10], 56.1 µM in [7] and 1620 nM in [8]. The TGI in assay [1], in assay [2], in [3], in assay [4], in [5] and in assay [6] was more than 100 µM in each case. The TGI in assay [10] was 94.9 µM; in assay [7], more than 100 µM; in assay [8] it was more than 100 µM.

On to `O=c1[nH]c2nc3ccccc3c(=O)n2nc1Cc1ccccc1`, for which the TGI in assay [1], in assay [2], in assay [4], in assay [6], in assay [10] and in assay [7] was more than 100 µM each time. In addition, the TGI in [9] was more than 100 µM.

Turning to `O=S(=O)(F)Cc1ccccc1`, the TGI in assay [1], in assay [2], in assay [4], in assay [5], in assay [6] and in assay [10] was more than 100 µM throughout. Also, the TGI in assay [7], in [8] and in assay [9] was more than 100 µM in each case.

Regarding `COc1ccc(-c2cc(=O)c3c(O)c(O)c(OC)cc3o2)cc1O`, the TGI in assay [1], in [2], in assay [4], in [6], in assay [10] and in [7] was more than 100 µM each time. This compound also had a TGI in assay [9] of more than 100 µM.
